According to patent US20170291905A1, “ARGININE […] INHIBITORS AND USES THEREOF” (Epizyme, Inc., priority 2014, published 2017):

Biological target: full-length human PRMT8 isoform 1 (Homo sapiens, UniProt Q9NR22)
Test: PRMT8 biochemical assay (3H-SAM Flashplate, histone H4 31-45 peptide)
Conditions: 1.5 nM PRMT8, 30 min preincubation, 150 nM peptide
Outline: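 Purified untagged full-length PRMT8 (1.5 nM) preincubated with compound 30 min at room temperature in 20 mM Bicine pH 7.6, then reacted with 150 nM biotinylated H4 peptide, 50 nM 3H-SAM plus 550 nM SAM, 2% DMSO. Stopped with 400 uM cold SAM; peptide captured on streptavidin Flashplate, counted; % inhibition vs DMSO/SAH controls fitted for IC50.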

Sequence of full-length human PRMT8 isoform 1 (Q9NR22 whole entry, canonical isoform): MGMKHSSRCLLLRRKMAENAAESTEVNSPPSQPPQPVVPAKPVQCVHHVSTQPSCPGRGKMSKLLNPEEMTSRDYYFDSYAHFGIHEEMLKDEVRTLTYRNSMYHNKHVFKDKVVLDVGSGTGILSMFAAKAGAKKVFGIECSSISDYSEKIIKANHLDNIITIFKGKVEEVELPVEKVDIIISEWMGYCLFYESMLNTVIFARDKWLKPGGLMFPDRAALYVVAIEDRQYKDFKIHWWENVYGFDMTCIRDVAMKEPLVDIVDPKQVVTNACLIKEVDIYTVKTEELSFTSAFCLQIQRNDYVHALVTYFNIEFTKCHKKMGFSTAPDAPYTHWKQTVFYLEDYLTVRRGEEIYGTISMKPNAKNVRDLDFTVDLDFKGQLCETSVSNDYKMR

**Q.** `CC[C@H]1CC[C@@H](c2n[nH]cc2CN(C)CCNC)CC1` [compound 1] was tested. Which IC50 did it give?
**A.** 11.1 nM

**Q.** `CCOCCOCC1(COCCOCC)CCC(c2n[nH]cc2CN(C)CCNC)CC1` [compound 39, N1-((3-(4,4-bis((2-ethoxyethoxy)methyl)cyclohexyl)-1H-pyrazol-4-yl)methyl)-N1,N2-dimethylethane-1,2-diamine] was tested. Which IC50 did it give?
**A.** 139 nM

**Q.** `CNCCN(C)Cc1c[nH]nc1C1CCC(COCCC2CCOCC2)(COCCC2CCOCC2)CC1` [compound 40] was tested. Which IC50 did it give?
**A.** 45.5 nM

**Q.** `CNCCN(C)Cc1c[nH]nc1C1CCC(COCC2CC2)(COCC2CC2)CC1` [compound 41, N1-((3-(4,4-bis((cyclopropylmethoxy)methyl)cyclohexyl)-1H-pyrazol-4-yl)methyl)-N1,N2-dimethylethane-1,2-diamine] was tested. Which IC50 did it give?
**A.** 9.27 nM

**Q.** Which IC50 does the source give for `CN(C)CCN(C)Cc1c[nH]nc1[C@H]1CC[C@@]2(CC1)CC(C)(C)CO2` [compound 42, N1-((3-((5S,8S)-3,3-dimethyl-1-oxaspiro[4.5]decan-8-yl)-1H-pyrazol-4-yl)methyl)-N1,N2,N2-trimethylethane-1,2-diamine] here?
**A.** 33.8 nM

**Q.** How did the IC50 turn out when `CN(C)CCN(C)Cc1c[nH]nc1[C@H]1CC[C@]2(CC1)CC(C)(C)CO2` [compound 43, N1-((3-((5r,8r)-3,3-dimethyl-1-oxaspiro[4.5]decan-8-yl)-1H-pyrazol-4-yl)methyl)-N1,N2,N2-trimethylethane-1,2-diamine] was run?
**A.** 97.2 nM

**Q.** How did the IC50 turn out when `CNCCN(C)Cc1c[nH]nc1C1CCC(CO)(CO)CC1` [compound 44, (4-(4-((methyl(2-(methylamino)ethyl)amino)methyl)-1H-pyrazol-3-yl)cyclohexane-1,1-diyl)dimethanol] was run?
**A.** 34.4 nM

**Q.** For `CNCCN(C)Cc1c[nH]nc1C1CCC(COC)(COCC2CCOCC2)CC1` (stereo not drawn) [compound 45], which IC50 is on record?
**A.** 11.2 nM

**Q.** How did the IC50 turn out when `CNCCN(C)Cc1c[nH]nc1C1=CCC2(CC1)CC(C)(C)CO2` (stereo not drawn) [compound 46, N1-((3-(3,3-dimethyl-1-oxaspiro[4.5]dec-7-en-8-yl)-1H-pyrazol-4-yl)methyl)-N1,N2-dimethylethane-1,2-diamine] was run?
**A.** 24.6 nM

**Q.** Which IC50 does the source give for `CCC1(CC)C[C@]2(CC[C@H](c3n[nH]cc3CN(C)CCNC)CC2)NC1=O` [compound 47, (5s,8s)-3,3-diethyl-8-(4-((methyl(2-(methylamino)ethyl)amino)methyl)-1H-pyrazol-3-yl)-1-azaspiro[4.5]decan-2-one] here?
**A.** 14.9 nM

**Q.** For `CCC1(CC)C[C@]2(CC[C@@H](c3n[nH]cc3CN(C)CCNC)CC2)NC1=O` [compound 48, (5r,8r)-3,3-diethyl-8-(4-((methyl(2-(methylamino)ethyl)amino)methyl)-1H-pyrazol-3-yl)-1-azaspiro[4.5]decan-2-one], which IC50 is on record?
**A.** 70.6 nM

**Q.** How did the IC50 turn out when `CNCCN(C)Cc1ccnn1[C@H]1CC[C@@]2(CC1)CC(C)(C)CO2` [compound 49, N1-((1-((5s,8s)-3,3-dimethyl-1-oxaspiro[4.5]decan-8-yl)-1H-pyrazol-5-yl)methyl)-N1,N2-dimethylethane-1,2-diamine] was run?
**A.** 16.7 nM
